ChEMBL document CHEMBL1201862, “PubChem BioAssay data set” (2004)
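All cell lines were grown in 96-well plates and treated with compound for 48 hours. The concentration for 50% growth inhibition is given as GI50.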 Active and inactive are the calls of the source. Cut-off read from the data, not from the text of the source: active = GI50 up to about 1.1 µM and inactive = higher.

What was measured:
Assay in all cases: NCI anticancer screen, dose series, 48 h
[1] = test system: HCT-15
[2] = test system: EKVX
[3] = test system: PC-3
[4] = test system: HL-60
[5] = test system: SK-MEL-28
[6] = test system: CAKI-1
[7] = test system: ACHN
[8] = test system: SN12C
[9] = test system: MOLT-4
[10] = test system: HCC 2998
[11] = test system: NCI-H460
[12] = test system: A549
[13] = test system: RPMI-8226
[14] = test system: UACC-257
[15] = test system: T47D
[16] = test system: HT-29
[17] = test system: HCT-116
[18] = test system: HOP-62
[19] = test system: SF-539
[20] = test system: MCF7

SMILES | GI50 [1] [µM] | GI50 [2] | GI50 [3] | GI50 [4] | GI50 [5] | GI50 [6] | GI50 [7] | GI50 [8] | GI50 [9] | GI50 [10] | GI50 [11] | GI50 [12] | GI50 [13] | GI50 [14] | GI50 [15] | GI50 [16] | GI50 [17] | GI50 [18] | GI50 [19] | GI50 [20]
Cc1cc(OCC(=O)O)c(Cl)cc1Cl | > 100 | > 100 µM (inactive) | > 100 µM (inactive) | > 100 µM (inactive) | > 100 µM (inactive) | > 100 µM (inactive) | > 100 µM (inactive) | > 100 µM (inactive) | > 100 µM (inactive) | > 100 µM (inactive) | > 100 µM (inactive) | > 100 µM (inactive) | 81.3 µM (inactive) | > 100 µM (inactive) | > 100 µM (inactive) | > 100 µM (inactive) | > 100 µM (inactive) | > 100 µM (inactive) | – | –
Cc1cc([N+](=O)[O-])c(C)c(Br)c1C | > 100 | 70.8 µM (inactive) | > 100 µM (inactive) | – | > 100 µM (inactive) | > 100 µM (inactive) | > 100 µM (inactive) | > 100 µM (inactive) | – | – | > 100 µM (inactive) | > 100 µM (inactive) | > 100 µM (inactive) | > 100 µM (inactive) | 71 µM (inactive) | > 100 µM (inactive) | > 100 µM (inactive) | > 100 µM (inactive) | > 100 µM (inactive) | > 100 µM (inactive)
N#CC1=C2Sc3ccccc3N2[C@H](c2ccccc2)[C@H]2COC(=O)[C@@H]12 | > 100 | > 100 µM (inactive) | > 100 µM (inactive) | – | > 100 µM (inactive) | 17.5 µM (inactive) | > 100 µM (inactive) | – | 33.5 µM (inactive) | > 100 µM (inactive) | – | > 100 µM (inactive) | 22.6 µM (inactive) | > 100 µM (inactive) | 35.6 µM (inactive) | – | > 100 µM (inactive) | > 100 µM (inactive) | > 100 µM (inactive) | 31 µM (inactive)
O=C(N[C@@H](c1ccccc1)[C@@H](O)C(=O)OCc1ccc([N+](=O)[O-])cc1)c1ccccc1 | > 100 | > 100 µM (inactive) | > 100 µM (inactive) | – | – | > 100 µM (inactive) | > 100 µM (inactive) | > 100 µM (inactive) | 25.8 µM (inactive) | > 100 µM (inactive) | > 100 µM (inactive) | > 100 µM (inactive) | – | > 100 µM (inactive) | > 100 µM (inactive) | > 100 µM (inactive) | > 100 µM (inactive) | > 100 µM (inactive) | > 100 µM (inactive) | 84.5 µM (inactive)
Cn1c(=O)c2c3ccccc3n(C)c2n(C)c1=O | > 100 | > 100 µM (inactive) | – | > 100 µM (inactive) | – | > 100 µM (inactive) | 97.9 µM (inactive) | > 100 µM (inactive) | > 100 µM (inactive) | > 100 µM (inactive) | – | > 100 µM (inactive) | > 100 µM (inactive) | > 100 µM (inactive) | > 100 µM (inactive) | > 100 µM (inactive) | > 100 µM (inactive) | > 100 µM (inactive) | > 100 µM (inactive) | > 100 µM (inactive)
O=C1Cc2c([nH]c3ccccc23)C2(CC3CCCCN13)OCCO2 (stereo not given) | > 100 | > 100 µM (inactive) | > 100 µM (inactive) | – | > 100 µM (inactive) | > 100 µM (inactive) | > 100 µM (inactive) | > 100 µM (inactive) | – | 90.6 µM (inactive) | > 100 µM (inactive) | > 100 µM (inactive) | > 100 µM (inactive) | > 100 µM (inactive) | > 100 µM (inactive) | > 100 µM (inactive) | > 100 µM (inactive) | > 100 µM (inactive) | – | > 100 µM (inactive)
CCOC(=O)Nn1cnnc1Cc1ccccc1 | > 100 | > 100 µM (inactive) | > 100 µM (inactive) | – | – | > 100 µM (inactive) | > 100 µM (inactive) | > 100 µM (inactive) | > 100 µM (inactive) | > 100 µM (inactive) | > 100 µM (inactive) | > 100 µM (inactive) | > 100 µM (inactive) | > 100 µM (inactive) | > 100 µM (inactive) | > 100 µM (inactive) | > 100 µM (inactive) | > 100 µM (inactive) | > 100 µM (inactive) | > 100 µM (inactive)
CC(/C=N\NC(=S)N(C)C)=N/NC(=S)N(C)C | 0.07 | 0.832 µM (active) | 0.577 µM (active) | – | 4.52 µM (inactive) | 0.815 µM (active) | 0.113 µM (active) | 0.951 µM (active) | 0.0397 µM (active) | 2.49 µM (inactive) | 0.0412 µM (active) | 0.142 µM (active) | 0.791 µM (active) | 2.61 µM (inactive) | 0.0935 µM (active) | 0.0995 µM (active) | 0.117 µM (active) | 0.327 µM (active) | 0.74 µM (active) | 0.759 µM (active)
CCC(C)(C)C1CCC2c3c([nH]c4ccccc34)C3C(=O)N(c4ccc(OC)cc4)C(=O)C3C2C1 (stereo not given) | 27.5 | 35.4 µM (inactive) | 9.79 µM (inactive) | – | 25.9 µM (inactive) | 10.4 µM (inactive) | 11.2 µM (inactive) | 2.42 µM (inactive) | 3.62 µM (inactive) | 5.77 µM (inactive) | 7.4 µM (inactive) | 13.4 µM (inactive) | – | 34 µM (inactive) | 6.55 µM (inactive) | 11.2 µM (inactive) | 9.08 µM (inactive) | 10.2 µM (inactive) | 12.4 µM (inactive) | 3.94 µM (inactive)
CC(C)=C/C(CC(O)(C(F)(F)F)C(F)(F)F)=N\O | > 100 | > 100 µM (inactive) | – | > 100 µM (inactive) | > 100 µM (inactive) | – | > 100 µM (inactive) | > 100 µM (inactive) | > 100 µM (inactive) | > 100 µM (inactive) | > 100 µM (inactive) | > 100 µM (inactive) | > 100 µM (inactive) | > 100 µM (inactive) | > 100 µM (inactive) | > 100 µM (inactive) | > 100 µM (inactive) | > 100 µM (inactive) | > 100 µM (inactive) | > 100 µM (inactive)
C=C(C)CCC1C=[N+]([O-])OC(C)(C)C1(C)C (stereo not given) | 84.3 | > 100 µM (inactive) | – | 30.1 µM (inactive) | – | > 100 µM (inactive) | > 100 µM (inactive) | > 100 µM (inactive) | > 100 µM (inactive) | > 100 µM (inactive) | > 100 µM (inactive) | 49.3 µM (inactive) | > 100 µM (inactive) | > 100 µM (inactive) | > 100 µM (inactive) | > 100 µM (inactive) | > 100 µM (inactive) | > 100 µM (inactive) | > 100 µM (inactive) | 73.5 µM (inactive)
CC(=O)N1N=C(c2ccc3ccccc3c2O)CC1C(=O)c1ccco1 (stereo not given) | 26.7 | – | 22.5 µM (inactive) | – | 37.8 µM (inactive) | 44.1 µM (inactive) | 19.2 µM (inactive) | 41.2 µM (inactive) | 5.62 µM (inactive) | 16.3 µM (inactive) | 15.3 µM (inactive) | 27.9 µM (inactive) | 17.2 µM (inactive) | 32.1 µM (inactive) | 40.6 µM (inactive) | 22.8 µM (inactive) | 28.6 µM (inactive) | 30.6 µM (inactive) | 26.1 µM (inactive) | 21.4 µM (inactive)
CCOP(=O)(OCC)/C(C#N)=C/c1cccn1C(C)C | > 100 | > 100 µM (inactive) | > 100 µM (inactive) | – | > 100 µM (inactive) | > 100 µM (inactive) | > 100 µM (inactive) | > 100 µM (inactive) | > 100 µM (inactive) | > 100 µM (inactive) | > 100 µM (inactive) | > 100 µM (inactive) | – | > 100 µM (inactive) | > 100 µM (inactive) | > 100 µM (inactive) | > 100 µM (inactive) | > 100 µM (inactive) | > 100 µM (inactive) | > 10 µM (inactive)
O=c1[nH]nc(Cc2ccccc2)n1/N=C/c1ccccc1O | > 100 | > 100 µM (inactive) | – | > 100 µM (inactive) | > 100 µM (inactive) | > 100 µM (inactive) | > 100 µM (inactive) | > 100 µM (inactive) | > 100 µM (inactive) | > 100 µM (inactive) | > 100 µM (inactive) | > 100 µM (inactive) | > 100 µM (inactive) | > 100 µM (inactive) | > 100 µM (inactive) | > 100 µM (inactive) | > 100 µM (inactive) | 25.9 µM (inactive) | > 100 µM (inactive) | > 100 µM (inactive)
COc1cc2cc(C(=O)N3CC(CCl)c4c3cc([N+](=O)[O-])c3ccccc43)[nH]c2c(OC)c1OC (stereo not given) | – | 16.7 µM (inactive) | 10.9 µM (inactive) | – | > 100 µM (inactive) | 39.4 µM (inactive) | 11.2 µM (inactive) | 79.6 µM (inactive) | 13.8 µM (inactive) | 14.1 µM (inactive) | 4.68 µM (inactive) | 1.8 µM (inactive) | > 100 µM (inactive) | > 100 µM (inactive) | > 66.8 µM (inactive) | 40.6 µM (inactive) | 27 µM (inactive) | 8.91 µM (inactive) | 25.8 µM (inactive) | 17.3 µM (inactive)
Cc1ccc2c(c1)NC(=O)CC(c1ccccc1)=N2 | 61.4 | > 100 µM (inactive) | 97.1 µM (inactive) | – | > 100 µM (inactive) | > 100 µM (inactive) | > 100 µM (inactive) | > 100 µM (inactive) | 28.6 µM (inactive) | > 100 µM (inactive) | > 100 µM (inactive) | 81.7 µM (inactive) | 17.4 µM (inactive) | > 100 µM (inactive) | 70.6 µM (inactive) | > 100 µM (inactive) | 61.5 µM (inactive) | > 100 µM (inactive) | > 100 µM (inactive) | 71.8 µM (inactive)
